Source: PMC11125953 (Viruses, 2024)
Where a name gives a salt, the structure may show the parent alone. Read-outs that look alike come from different tables or passages of the source.

Experiments:
in vitro [1] = conditions: horse
in vitro [2] = conditions: horse; remark: listed apart in the source
[3] = test system: EHV-4 405/76 reference strain; test: RTCA; format: cell-based, Equid herpesvirus 4; conditions: area under normalized Cell Index curves, 0-120 hpi, EHV-4-infected E. Derm cells
[4] = test system: EHV-4 405/76 reference strain; conditions: ratio of CC50 to EC50 obtained by qPCR
[5] = test system: EHV-4 405/76 reference strain; test: microbe, parasite or virus in culture
[6] = in vivo; cited from earlier work
[7] = test system: EHV-4 405/76 reference strain; conditions: for Si (CC50/EC50, RTCA): ratio of CC50 to EC50 obtained by RTCA; for CIT50 increase: RTCA, EHV-4-infected E. Derm cells
[8] = test system: EHV-4 405/76 reference strain; test: microbe, parasite or virus in culture; remark: listed apart in the source
mice = conditions: mouse, in vivo; cited from earlier work
[9] = Cytotoxicity by CellTiter-Glo; conditions: horse, E. Derm cells
[10] = Cytotoxicity by impedance using RTCA; conditions: horse, E. Derm cells
[11] = Equid alphaherpesvirus 4, read-out: qPCR EC50 (µM ± S.D)
[12] = Equid alphaherpesvirus 4, read-out: qPCR EC50 (µg/mL ± S.D)
[13] = Equid alphaherpesvirus 4, read-out: RTCA EC50 (µM ± S.D)
[14] = Equid alphaherpesvirus 4, read-out: RTCA EC50 (µg/mL ± S.D)

Structure (SMILES)	CC50 (in vitro [1]) [µM]	CC50 (in vitro [2]) [µM]	AUCn ([3]; 0.4 µM)	AUCn ([3]; 2 µM)	AUCn ([3]; 10 µM)	AUCn ([3]; 50 µM)	SI (CC50 CellTiter-Glo/EC50 qPCR) [4]	EC50 [5, 11] [µM]	EC50 [5, 12] [µg/mL]	improvement of the bioavailability of ganciclovir by oral valganciclovir [6] [%]	Si (CC50/EC50, RTCA) [7]	EC50 [8, 13] [µM]	EC50 [8, 14] [µg/mL]	toxic concentration (mice) [µM]	CC50 [9] [µM]	CC50 [10] [µM]	CIT50 increase ([7]; 0.78 µM) [h]	CIT50 increase ([7]; 1.56 µM) [h]
CC(C)[C@H](N)C(=O)OCC(CO)OCn1cnc2c(=O)nc(N)[nH]c21 (stereo partly shown) [Valganciclovir hydrochloride]	> 50	> 50	33.79	42.41	75.80	145.98	>13.89	3.6 ± 1.02	1.28 ± 0.36	41 ± 20	>5.24	9.55 ± 2.81	3.38 ± 1	–	–	–	–	–
Nc1ncn([C@H]2C[C@H](O)[C@@H](CO)O2)c(=O)n1 [Decitabine]	–	–	73.51	93.80	120.54	128.21	>178.57	0.28 ± 0.05	0.06 ± 0.01	–	>43.10	1.16 ± 0.31	0.26 ± 0.07	~25	> 50	> 50	25.66 ± 10.74	30.13 ± 15.34
Nc1ccn(C[C@@H](CO)OCP(=O)(O)O)c(=O)n1 [Cidofovir]	–	–	38.54	42.07	40.56	59.40	>6.26	7.99 ± 3.38	2.23 ± 0.94	–	>3.98	12.6 ± 4.32	3.5 ± 1.21	–	> 50	> 50	–	–
